Data published in US8598357B2, “Benzodioxole piperidine compounds” (Hoffmann-La Roche Inc., priority 2011, dated 2013).
Read-outs that look alike come from different tables or passages of the source.

Assays:
D2 receptor = D2 receptor (Homo sapiens (Human), UniProt P14416); assay: Radioligand binding assay ([3H]-spiperone) on membranes of HEK293 EBNA cells expressing human D2 receptor; details: human receptor in HEK293 EBNA cells; 0.7 nM [3H]-spiperone
Experimental: (§1) HEK293 EBNA cells were transiently transfected with expression plasmids encoding for the human D2 or D3 or for the human 5-HT2A receptor, respectively. The cells were harvested 48 h post-transfection, washed three times with cold PBS and stored at −80° C. prior to use. The pellet was suspended in cold 50 mM Tris-HCl buffer containing 10 mM EDTA (pH 7.4) and was homogenized with a Polytron (Kinematica AG, Basel, Switzerland) for 20-30 sec at 12.000 rpm. After centrifugation at 48.000×g for 30 min at 4° C., the pellet was resuspended in cold 10 mM Tris-HCl buffer containing 0.1 mM EDTA (pH 7.4), homogenized, and centrifuged as above. This pellet was further resuspended in a smaller volume of ice cold 10 mM Tris-HCl buffer containing 0.1 mM EDTA (pH 7.4) and homogenized with a Polytron for 20-30 sec at 12.000 rpm. The protein content of this homogenate was determined with the Bio-Rad (Bradford) Protein Assay (Biorad Laboratories GmbH, München, Germany) according to the instructions of the manufacturer using gamma globulin as the standard. This homogenate was stored at −80° C. in aliquots and thawed immediately prior to use.
(§2) Aliquots of membrane preparations were thawed at RT, resuspended in assay buffer (D2, D3: 50 mM Tris-HCl, 120 mM NaCl, 5 mM MgCl2, 1 mM EDTA, 5 mM KCl, 1.5 mM CaCl2, pH=7.4; 5-HT2A: 50 mM Tris-HCl, 10 mM MgCl2, 1 mM EGTA, pH=7.4), homogenized with a Polytron for 20-30 sec at 12.000 rpm and adjusted to a final concentration of approximately 7.5 μg protein/well (D2, D3) and 15 μg protein/well (5-HT2A), respectively.
(§3) The nonspecific binding was determined with equally composed reaction mixtures in the presence of 10 μM unlabelled spiperone. Per well 45 μl of Microscint 40 (Perkin Elmer, Schwerzenbach, Switzerland) was added, plates for sealed, shaken for 20 min and counted for 3 min on a Topcount Microplate Scintillation Counter (Can berra Packard SA, Ziirich, Switzerland) with quenching correction.
(§4) The CPM value for each duplicate of a concentration of competing compound was averaged (y1), then the % specific binding was calculated according to the equation (((y1−non-specific)/(total binding−non-specific))×100). Graphs were plotted with the % specific binding using XLfit, a curve fitting program that iteratively plots the data using Levenberg-Marquardt algorithm. The single site competition analysis equation used was y=A+((B−A)/(1+((x/C)D))), where y is the % specific binding, A is the minimum y, B is the maximum y, C is the IC50, x is the log 10 of the concentration of the competing compound and D is the slope of the curve (the Hill Coefficient). […] The affinity constant (K) was calculated using the Cheng-Prusoff equation Ki=(IC50/1+([L]/Kd), where [L] is the concentration of radioligand and Kd is the dissociation constant of the radioligand at the receptor as determined by the saturation isotherm.

D3 receptor = D3 receptor (Homo sapiens (Human), UniProt P35462); assay: Radioligand binding assay ([3H]-spiperone) on membranes of HEK293 EBNA cells expressing human D3 receptor; details: read-out: D3 Ki; human receptor in HEK293 EBNA cells; 0.5 nM [3H]-spiperone
Experimental: as §1, §2, §3, §4

5-HT2A receptor = 5-HT2A receptor (Homo sapiens (Human), UniProt P28223); assay: Radioligand binding assay ([3H]-ketanserin) on membranes of HEK293 EBNA cells expressing human 5-HT2A receptor; details: read-out: 5HT2A Ki
[1] = human receptor in HEK293 EBNA cells, 1.1 nM [3H]-ketanserin

Chain of D3 receptor (P35462 whole entry): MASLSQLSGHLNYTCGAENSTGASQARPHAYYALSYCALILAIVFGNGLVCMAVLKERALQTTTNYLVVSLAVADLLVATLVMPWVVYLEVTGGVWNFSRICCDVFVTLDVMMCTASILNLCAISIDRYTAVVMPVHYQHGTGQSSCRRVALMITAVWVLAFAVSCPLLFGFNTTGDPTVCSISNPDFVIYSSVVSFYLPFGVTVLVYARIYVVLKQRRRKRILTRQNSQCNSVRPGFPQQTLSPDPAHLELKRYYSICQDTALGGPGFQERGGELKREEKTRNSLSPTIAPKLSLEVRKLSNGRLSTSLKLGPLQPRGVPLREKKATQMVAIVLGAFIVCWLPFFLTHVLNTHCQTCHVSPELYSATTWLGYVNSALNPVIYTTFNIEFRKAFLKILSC
Chain of D2 receptor (P14416 whole entry): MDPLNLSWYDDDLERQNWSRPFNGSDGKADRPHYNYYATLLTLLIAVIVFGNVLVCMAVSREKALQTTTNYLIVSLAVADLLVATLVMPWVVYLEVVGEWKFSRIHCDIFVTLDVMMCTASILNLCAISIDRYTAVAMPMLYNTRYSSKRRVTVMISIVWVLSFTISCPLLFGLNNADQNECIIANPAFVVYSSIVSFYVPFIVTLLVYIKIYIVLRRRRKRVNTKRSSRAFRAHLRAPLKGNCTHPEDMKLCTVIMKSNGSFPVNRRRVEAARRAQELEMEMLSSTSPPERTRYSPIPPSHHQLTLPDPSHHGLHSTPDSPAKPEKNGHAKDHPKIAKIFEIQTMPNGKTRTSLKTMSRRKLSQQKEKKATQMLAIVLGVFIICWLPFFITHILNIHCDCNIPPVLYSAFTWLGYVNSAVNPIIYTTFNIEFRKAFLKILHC

## O=C(N[C@H]1CC[C@H](CCN2CCC(c3cccc4c3OCO4)CC2)CC1)c1ccc2c(c1)OCCO2 [Example 58, 2,3-Dihydro-benzo[1,4]dioxine-6-carboxylic acid-trans-N-{4-[2-(4-benzo[1,3]dioxol-4-yl-piperidin-1-yl)-ethyl]-cyclohexyl}-amide]
D2 receptor
  Ki: 345 nM
D3 receptor
  Ki: 3.7 nM
5-HT2A receptor
  Ki: 20.1 nM

## CCC(C)C(=O)N[C@H]1CC[C@H](CCN2CCC(c3cccc4c3OCO4)CC2)CC1 (stereo partly drawn) [Example 51, Trans-N-{4-[2-(4-Benzo[1,3]dioxol-4-yl-piperidin-1-yl)-ethyl]-cyclohexyl}-2-methyl-butyramide]
D2 receptor
  Ki: 352 nM
D3 receptor
  Ki: 13.8 nM
5-HT2A receptor
  Ki: 25 nM

## O=C(N[C@H]1CC[C@H](CCN2CCC(c3cccc4c3OCO4)CC2)CC1)C1CCOC1 (stereo partly drawn) [Example 47, Tetrahydro-furan-3-carboxylic acid-trans-{4-[2-(4-benzo[1,3]dioxol-4-yl-piperidin-1-yl)-ethyl]-cyclohexyl}-amide]
D2 receptor
  Ki: 165 nM
D3 receptor
  Ki: 7.61 nM
5-HT2A receptor; [1]
  Ki: 24.1 nM

## O=C(N[C@H]1CC[C@H](CCN2CCC(c3cccc4c3OCO4)CC2)CC1)[C@@H](O)C(F)(F)F [Example 39, Trans-(R)—N-{4-[2-(4-Benzo[1,3]dioxol-4-yl-piperidin-1-yl)-ethyl]-cyclohexyl}-3,3,3-trifluoro-2-hydroxy-propionamide]
D2 receptor
  Ki: 284 nM
D3 receptor
  Ki: 19.9 nM
5-HT2A receptor
  Ki: 19.4 nM

## O=C(CC1CCOCC1)N[C@H]1CC[C@H](CCN2CCC(c3cccc4c3OCO4)CC2)CC1 [Example 53, Trans-N-{4-[2-(4-Benzo[1,3]dioxol-4-yl-piperidin-1-yl)-ethyl]-cyclohexyl}-2-(tetrahydro-pyran-4-yl)-acetamide]
D2 receptor
  Ki: 352 nM
D3 receptor
  Ki: 8.81 nM
5-HT2A receptor; [1]
  Ki: 29.6 nM

## O=C(CC1(O)CCOCC1)N[C@H]1CC[C@H](CCN2CCC(c3cccc4c3OCO4)CC2)CC1 [Example 31, Trans-N-{4-[2-(4-Benzo[1,3]dioxol-4-yl-piperidin-1-yl)-ethyl]-cyclohexyl}-2-(4-hydroxy-tetrahydro-pyran-4-yl)-acetamide]
D2 receptor
  Ki: 306 nM
D3 receptor
  Ki: 7.15 nM
5-HT2A receptor; [1]
  Ki: 24.9 nM

## O=C(N[C@H]1CC[C@H](CCN2CCC(c3cccc4c3OCO4)CC2)CC1)C1(O)CCCCC1 [Example 66, 1-Hydroxy-cyclohexanecarboxylic acid-trans-N-{4-[2-(4-benzo[1,3]dioxol-4-yl-piperidin-1-yl)-ethyl]-cyclohexyl}-amide]
D2 receptor
  Ki: 219 nM
D3 receptor
  Ki: 17.5 nM
5-HT2A receptor
  Ki: 3.93 nM

## O=C(N[C@H]1CC[C@H](CCN2CCC(c3cccc4c3OCO4)CC2)CC1)c1ccccc1 [Example 9, Trans-N-{4-[2-(4-Benzo[1,3]dioxol-4-yl-piperidin-1-yl)-ethyl]-cyclohexyl}-benzamide]
D2 receptor
  Ki: 120 nM
D3 receptor
  Ki: 3.63 nM
5-HT2A receptor
  Ki: 5.14 nM

## COCC(=O)N[C@H]1CC[C@H](CCN2CCC(c3cccc4c3OCO4)CC2)CC1 [Example 13, Trans-N-{4-[2-(4-Benzo[1,3]dioxol-4-yl-piperidin-1-yl)-ethyl]-cyclohexyl}-2-methoxy-acetamide]
D2 receptor
  Ki: 507 nM
D3 receptor
  Ki: 18 nM
5-HT2A receptor
  Ki: 14.6 nM

## CCOCCC(=O)N[C@H]1CC[C@H](CCN2CCC(c3cccc4c3OCO4)CC2)CC1 [Example 44, Trans-N-{4-[2-(4-Benzo[1,3]dioxol-4-yl-piperidin-1-yl)-ethyl]-cyclohexyl}-3-ethoxy-propionamide]
D2 receptor
  Ki: 393 nM
D3 receptor
  Ki: 7.32 nM
5-HT2A receptor; [1]
  Ki: 55 nM

## Cn1cnc(S(=O)(=O)N[C@H]2CC[C@H](CCN3CCC(c4cccc5c4OCO5)CC3)CC2)c1 [Example 72, 1-Methyl-1H-imidazole-4-sulfonic acid-trans-N-{4-[2-(4-benzo[1,3]dioxol-4-yl-piperidin-1-yl)-ethyl]-cyclohexyl}-amide]
D2 receptor
  Ki: 114 nM
D3 receptor
  Ki: 12.4 nM
5-HT2A receptor; [1]
  Ki: 64.8 nM

## O=S(=O)(N[C@H]1CC[C@H](CCN2CCC(c3cccc4c3OCO4)CC2)CC1)c1ccccc1 [Example 70, Trans-N-{4-[2-(4-Benzo[1,3]dioxol-4-yl-piperidin-1-yl)-ethyl]cyclohexyl}-benzenesulfonamide]
D2 receptor
  Ki: 63.5 nM
D3 receptor
  Ki: 3.65 nM
5-HT2A receptor
  Ki: 52.2 nM

## O=C(CC1CC1)N[C@H]1CC[C@H](CCN2CCC(c3cccc4c3OCO4)CC2)CC1 [Example 8, Trans-N-{4-[2-(4-Benzo[1,3]dioxol-4-yl-piperidin-1-yl)-ethyl]-cyclohexyl}-2-cyclopropyl-acetamide]
D2 receptor
  Ki: 303 nM
D3 receptor
  Ki: 2.54 nM
5-HT2A receptor; [1]
  Ki: 17.6 nM

## O=C(CC1(O)CCCCC1)N[C@H]1CC[C@H](CCN2CCC(c3cccc4c3OCO4)CC2)CC1 [Example 21, Trans-N-{4-[2-(4-Benzo[1,3]dioxol-4-yl-piperidin-1-yl)-ethyl]-cyclohexyl}-2-(1-hydroxy-cyclohexyl)-acetamide]
D2 receptor
  Ki: 361 nM
D3 receptor
  Ki: 10.4 nM
5-HT2A receptor
  Ki: 15.7 nM

## O=C(C[C@@H]1CCCO1)N[C@H]1CC[C@H](CCN2CCC(c3cccc4c3OCO4)CC2)CC1 [Example 17, Trans-N-{4-[2-(4-Benzo[1,3]dioxol-4-yl-piperidin-1-yl)-ethyl]-cyclohexyl}-2-(S)-tetrahydro-furan-2-yl-acetamide]
D2 receptor
  Ki: 531 nM
D3 receptor
  Ki: 6.41 nM
5-HT2A receptor
  Ki: 33.8 nM

## CS(=O)(=O)CC(=O)N[C@H]1CC[C@H](CCN2CCC(c3cccc4c3OCO4)CC2)CC1 [Example 55, Trans-N-{4-[2-(4-Benzo[1,3]dioxol-4-yl-piperidin-1-yl)-ethyl]cyclohexyl}-2-methanesulfonyl-acetamide]
D2 receptor
  Ki: 165 nM
D3 receptor
  Ki: 4.63 nM
5-HT2A receptor; [1]
  Ki: 27 nM

## O=C(CF)N[C@H]1CC[C@H](CCN2CCC(c3cccc4c3OCO4)CC2)CC1 [Example 76, Trans-N-{4-[2-(4-Benzo[1,3]dioxol-4-yl-piperidin-1-yl)-ethyl]-cyclohexyl}-2-fluoro-acetamide]
D2 receptor
  Ki: 230 nM
D3 receptor
  Ki: 12.4 nM
5-HT2A receptor; [1]
  Ki: 39.9 nM

## CC(C)C(=O)N[C@H]1CC[C@H](CCN2CCC(c3cccc4c3OCO4)CC2)CC1 [Example 23, Trans-N-{4-[2-(4-Benzo[1,3]dioxol-4-yl-piperidin-1-yl)-ethyl]-cyclohexyl}-isobutyramide]
D2 receptor
  Ki: 397 nM
D3 receptor
  Ki: 8.26 nM
5-HT2A receptor
  Ki: 17 nM

## CCC(=O)N[C@H]1CC[C@H](CCN2CCC(c3cccc4c3OCO4)CC2)CC1 [Example 7, Trans-N-{4-[2-(4-Benzo[1,3]dioxol-4-yl-piperidin-1-yl)-ethyl]-cyclohexyl}-propionamide]
D2 receptor
  Ki: 204 nM
D3 receptor
  Ki: 4.19 nM
5-HT2A receptor; [1]
  Ki: 16.6 nM

## O=C(C[C@@H]1CCCOC1)N[C@H]1CC[C@H](CCN2CCC(c3cccc4c3OCO4)CC2)CC1 [Example 42, Trans-N-{4-[2-(4-Benzo[1,3]dioxol-4-yl-piperidin-1-yl)-ethyl]-cyclohexyl}-2-(S)-tetrahydro-pyran-3-yl-acetamide]
D2 receptor
  Ki: 322 nM
D3 receptor
  Ki: 11.7 nM
5-HT2A receptor; [1]
  Ki: 20.1 nM

## O=C(C[C@H]1CCCO1)N[C@H]1CC[C@H](CCN2CCC(c3cccc4c3OCO4)CC2)CC1 [Example 16, Trans-N-{4-[2-(4-Benzo[1,3]dioxol-4-yl-piperidin-1-yl)-ethyl]-cyclohexyl}-2-(R)-tetrahydro-furan-2-yl-acetamide]
D2 receptor
  Ki: 228 nM
D3 receptor
  Ki: 10.8 nM
5-HT2A receptor
  Ki: 28 nM

## O=C(CCC(F)(F)F)N[C@H]1CC[C@H](CCN2CCC(c3cccc4c3OCO4)CC2)CC1 [Example 11, Trans-N-{4-[2-(4-Benzo[1,3]dioxol-4-yl-piperidin-1-yl)-ethyl]-cyclohexyl}-4,4,4-trifluoro-butyramide]
D2 receptor
  Ki: 410 nM
D3 receptor
  Ki: 7.74 nM
5-HT2A receptor; [1]
  Ki: 32 nM

## C[C@@H](O)C(=O)N[C@H]1CC[C@H](CCN2CCC(c3cccc4c3OCO4)CC2)CC1 [Example 64, (R)-trans-N-{4-[2-(4-Benzo[1,3]dioxol-4-yl-piperidin-1-yl)-ethyl]-cyclohexyl}-2-hydroxy-propionamide]
D2 receptor
  Ki: 268 nM
D3 receptor
  Ki: 11.1 nM
5-HT2A receptor; [1]
  Ki: 10.7 nM

## CC1(C(=O)N[C@H]2CC[C@H](CCN3CCC(c4cccc5c4OCO5)CC3)CC2)COC1 [Example 62, 3-Methyl-oxetane-3-carboxylic acid-trans-N-{4-[2-(4-benzo[1,3]dioxol-4-yl-piperidin-1-yl)-ethyl]-cyclohexyl}-amide]
D2 receptor
  Ki: 225 nM
D3 receptor
  Ki: 39 nM
5-HT2A receptor; [1]
  Ki: 22.1 nM

## CN1CCC(C(=O)N[C@H]2CC[C@H](CCN3CCC(c4cccc5c4OCO5)CC3)CC2)CC1 [Example 61, 1-Methyl-piperidine-4-carboxylic acid-trans-N-{4-[2-(4-benzo[1,3]dioxol-4-yl-piperidin-1-yl)-ethyl]-cyclohexyl}-amide]
D2 receptor
  Ki: 150 nM
D3 receptor
  Ki: 35.1 nM
5-HT2A receptor; [1]
  Ki: 5.91 nM

## COC(C)CC(=O)N[C@H]1CC[C@H](CCN2CCC(c3cccc4c3OCO4)CC2)CC1 (stereo partly drawn) [Example 27, Trans-N-{4-[2-(4-Benzo[1,3]dioxol-4-yl-piperidin-1-yl)-ethyl]-cyclohexyl}-3-methoxy-butyramide]
D2 receptor
  Ki: 402 nM
D3 receptor
  Ki: 7.52 nM
5-HT2A receptor
  Ki: 33.6 nM

## O=C(CC1CCCO1)N[C@H]1CC[C@H](CCN2CCC(c3cccc4c3OCO4)CC2)CC1 (stereo partly drawn) [Example 6, Trans-N-{4-[2-(4-Benzo[1,3]dioxol-4-yl-piperidin-1-yl)-ethyl]-cyclohexyl}-2-(tetrahydro-furan-2-yl)-acetamide]
D2 receptor
  Ki: 389 nM
D3 receptor
  Ki: 9.06 nM
5-HT2A receptor
  Ki: 21 nM

## O=C(N[C@H]1CC[C@H](CCN2CCC(c3cccc4c3OCO4)CC2)CC1)C1(O)CC1 [Example 49, 1-Hydroxy-cyclopropanecarboxylic acid-trans-{4-[2-(4-benzo[1,3]dioxol-4-yl-piperidin-1-yl)-ethyl]-cyclohexyl}-amide]
D2 receptor
  Ki: 245 nM
D3 receptor
  Ki: 6.09 nM
5-HT2A receptor
  Ki: 8.17 nM
